Assay results published in article PMC4014072 (Molecular and cellular biochemistry, 2010).

Biological target: LdLip3::HA (LdLip3 secretory lipase) (Leishmania donovani, UniProt D7P7V3)
Assay: fluorogenic 4MU release assay, anti-HA affinity-purified enzyme
Type: biochemical
Details: 150 µM substrate, McIlvaine buffer pH 6.0, 37 and 42 °C, 30 min

CCCCCCCCCCCCCCCCCC(=O)Oc1ccc2c(C)cc(=O)oc2c1 [4MU-stearate]
fluorogenic 4MU release assay, anti-HA affinity-purified enzyme: LdLip3∷HA chimeric protein and pKSNEO controls were subsequently analyzed for lipase activity using 4MU-stearate
